Measurements from patent US20070213291A1, “Therapeutically useful synthetic oligonucleotides” (priority 1999, published 2007).
Like-named read-outs stand apart in the source and are kept apart here.

What was measured:
[1] = test system: MCF-7 human breast cancer cells; experiment: MCF-7 human breast tumor xenografts in female nude BALB/c mice; assay type: in vivo; details: after 4 weeks of treatment, compared with other groups (group 1 saline)
Method: MCF-7 human breast cancer cells are implanted subcutaneously as xenografts, in female nude BALB/c mice. The mice are divided into 6 groups of 10 mice. […] After 4 weeks of treatment, the mice are sacrificed and tumor mass is determined.

[2] = test system: Jurkat human leukemia T cells; experiment: Inhibition of Jurkat human leukemia T cell proliferation (MTT reduction); assay type: cell-based
In short: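 Read-out is MTT absorbance at 570 nm after 48 h. Sequences of 2 to 45 bases (A, C, G, T) tested at 100 μg/ml against untreated control, with 2.5×10^5 Jurkat cells/ml held at 37° C under 5% CO2.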

[3] = test system: MCF-7 human breast cancer cells; experiment: Inhibition of MCF-7 cell proliferation (MTT); assay type: cell-based; details: alone or with sequence at 1.0 μg/ml; for inhibition at 1 µg/mL: Homo sapiens, MCF7
In short: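 Cells at 2.5×10^5 cells/ml (GT 3- and 6-base series at 5×10^5 cells/ml) treated with 100 μg/ml of 2-45-base oligonucleotide sequences versus untreated control for 48 h at 37 °C, 5% CO2. Proliferation read by MTT reduction at 570 nm.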

rhesus monkey PBMCs = experiment: Cytokine production by rhesus monkey PBMC (ELISA); assay type: cell-based; details: PBMC of 4 healthy rhesus monkeys, 100 μg/ml, 48 h
In short: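 Peripheral blood mononuclear cells taken from 4 healthy rhesus monkeys were cultured at 1×10^6 cells with 100 μg/ml of each test sequence for 48 h at 37° C. under 5% CO2. Cytokine levels in 100 μl of supernatant were quantified in pg/ml by commercial ELISA and reported as fold increase over untreated control cells.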

[4] = test system: human peripheral blood mononuclear cells; experiment: Cytokine production by human PBMC (ELISA); assay type: cell-based; details: PBMC of 7 healthy humans, 100 μg/ml, 48 h
In short: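 PBMC from 7 healthy donors, Ficoll-isolated; 1×10^6 cells incubated with 100 μg/ml oligonucleotide sequence for 48 h at 37 °C, 5% CO2. IL-1beta, IL-6, IL-10, IL-12 (p70 plus free p40) and TNF-alpha measured by ELISA in supernatant, expressed as fold increase over control cells.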

[5] = test system: Jurkat human leukemia T cells; experiment: Apoptosis by phosphatidylserine/annexin V-FITC flow cytometry; assay type: cell-based; details: 50 μM sequence
In short: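 Jurkat cells were exposed to 3–7-base oligonucleotides (GT, ACGT, AG, GG, AGT, CGT sequences) at 50 μM. Separately, 6-base GT and complementary AC sequences, alone or hybridized 1:1 (10 min, 65 °C), were applied for 24 h. Phosphatidylserine exposure was quantified by flow cytometry with FITC-annexin V.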

[6] = test system: Jurkat human leukemia T cells; experiment: NuMA release into supernatant (ELISA); assay type: cell-based; details: Jurkat, 50 μM sequence
In short: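 Jurkat T cells (1×10^6/ml) exposed to GT-containing oligonucleotide sequences, at 50 μM in some experiments, for 24 h in some experiments. NuMA released into the supernatant quantified by commercial ELISA.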

chimpanzee PBMCs = experiment: Cytokine production by chimpanzee PBMC (ELISA); assay type: cell-based; details: PBMC of 4 healthy chimpanzees, 100 μg/ml, 48 h
In short: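 PBMCs from 4 healthy chimpanzees (1×10^6 cells) were incubated 48 h at 37 °C, 5% CO2 with 100 μg/ml of each 6-base sequence. Supernatant IL-10, IL-12 (p70 plus free p40) and TNF-alpha were measured by ELISA. Values are fold increase over untreated control cells.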

[7] = test system: THP-1 human acute monocytic leukemia cells; experiment: Cytokine production by THP-1 cells (ELISA); assay type: cell-based; details: THP-1, 1×10^6 cells, 100 μg/ml, 48 h
In short: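 Read-out is fold increase in supernatant cytokine versus control cells, measured by ELISA (IL-12 ELISA counts p70 complex plus free p40). Unless noted, sequences were tested at 100 μg/ml on 1×10^6 cells, incubated 48 h, 37° C, 5% CO2.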

[8] = test system: LNCaP human prostate cancer cells; experiment: LNCaP human prostate cancer xenografts in male nude nu/nu mice; assay type: in vivo; details: after 4 weeks of treatment, compared with other groups (group 1 saline, group 5 BCG A-3)
Method: LNCaP human prostate cancer cells are implanted subcutaneously, as xenografts, in male nude nu/nu mice. The mice are divided into 5 groups of 10 mice. On day 0, group 1 mice receive saline, group 2 mice receive 3 base SEQ ID NO:8, group 3 mice receive 6 base GT SEQ ID NO:25, group 4 mice receive 6 base AG SEQ ID NO:45 and group 5 mice receive 45 base BCG A-3 SEQ ID NO:69. After 4 weeks of treatment, the mice are sacrificed and timor mass is determined.

[9] = test system: EL-4 murine T lymphoma cells; experiment: EL-4 murine T lymphoma in C57/BL6 mice; assay type: in vivo; details: after 4 weeks of treatment, compared with group 1 (saline)
Method: EL-4 murine T lymphoma cells are implanted into C57/BL6 mice. The mice are divided into 6 groups of 10 mice. On day 0, group 1 mice receive saline, group 2 mice receive 3 base GT SEQ ID NO:8, group 3 mice receive 6 base SEQ ID NO:25, group 4 mice receive 6 base AG SEQ ID NO:45, group 5 mice receive 18 base GT SEQ ID NO: 18 and group 6 mice receive 27 base GT SEQ ID NO:1. After 4 weeks of treatment, the mice are sacrificed and tumor mass is determined.

In the case of O=c1[nH]cc(F)c(=O)[nH]1 [5-Fluorouracil, reference compound], the tumor mass [1] is reported as “less tumor mass than group 1 mice”, the “% INHIBITION of Jurkat proliferation, 5-Fluorouracil 0.1 μg/ml” value ([2]; 5-fluorouracil 0.1 μg/ml, alone or with sequence at 1.0 μg/ml) is reported as 3% and the “% INHIBITION of Jurkat proliferation, 5-Fluorouracil 10.0 μg/ml” value ([2]; 5-fluorouracil 10.0 μg/ml, alone or with sequence at 1.0 μg/ml) is reported as 38%. The inhibition at 1 µg/mL ([2]; Homo sapiens, Jurkat, 5-fluorouracil 1.0 μg/ml, alone or with sequence at 1.0 μg/ml) was 14%, the “% INHIBITION of MCF-7 proliferation, 5-Fluorouracil 0.1 μg/ml” value ([3]; 5-fluorouracil 0.1 μg/ml) was 13% and the inhibition at 1 µg/mL ([3]; 5-fluorouracil 1.0 μg/ml, read-out: % INHIBITION of MCF-7 proliferation, 5-Fluorouracil 1.0 μg/ml) was 28%.

With CC/C(=C(\c1ccccc1)c1ccc(OCCN(C)C)cc1)c1ccccc1 [Tamoxifen, reference compound] the tumor mass [1] was “less tumor mass than group 1 mice”, the inhibition at 1 µg/mL ([3]; tamoxifen 1.0 μg/ml, read-out: % INHIBITION of MCF-7 proliferation, Tamoxifen 1.0 μg/ml) was 18% and the “% INHIBITION of MCF-7 proliferation, Tamoxifen 0.1 μg/ml” value ([3]; tamoxifen 0.1 μg/ml) was 10%. For the same molecule, the “% INHIBITION of MCF-7 proliferation, Tamoxifen 10.0 μg/ml” value ([3]; tamoxifen 10.0 μg/ml) was 15%.

With GGGAGG (unmodified DNA) [SEQ ID NO:45] the “% INHIBITION of Jurkat human leukemia T cell proliferation” value ([2]; 100 μg/ml sequence, 48 h, 2.5×10^5 cells/ml) was 28%, the “IL-10 fold increase: mean +/− SD” value (rhesus monkey PBMCs) was 1.1 +/− 0.1 fold increase and the “IL-12 fold increase: mean +/− SD” value (rhesus monkey PBMCs) was 11.9 +/− 4.5 fold increase. For the same molecule, the “TNF-alpha fold increase: mean +/− SD” value (rhesus monkey PBMCs) was 16.7 +/− 4.6 fold increase, the “IL-1 beta fold increase: mean +/− SD” value [4] was 13.6 +/− 14.9 fold increase and the “IL-6 fold increase: mean +/− SD” value [4] was 24.7 +/− 16.5 fold increase. For the same molecule, the “IL-10 fold increase: mean +/− SD” value [4] was 6.0 +/− 5.5 fold increase, the “IL-12 fold increase: mean +/− SD” value [4] was 20.7 +/− 10.3 fold increase and the “% of cells in apoptosis (positive for PS/A-V staining)” value [5] was 27%. For the same molecule, the “% NuMA released (treated vs untreated cells)” value [6] was 74%, the “IL-10 fold increase: mean +/− SD” value (chimpanzee PBMCs) was 9.9 +/− 9.2 fold increase and the “IL-12 fold increase: mean +/− SD” value (chimpanzee PBMCs) was 15.9 +/− 10.7 fold increase. The “TNF-alpha fold increase: mean +/− SD” value (chimpanzee PBMCs) was 14.5 +/− 6.9 fold increase, the “↑ IL-6 (fold increase treated vs control cells)” value [7] was 23.2x and the “↑ IL-12 (fold increase treated vs control cells)” value ([7]; p70 complex and free p40) was −1.6x. For the same molecule, the tumor mass [8] was “less tumor mass than groups 1 and 5 mice” and the tumor mass [9] was “less tumor mass than group 1 mice”.
